Patent US10195156B2, “Compounds and compositions for intracellular delivery of agents” (ModernaTX, Inc., priority 2015, dated 2019)
Read-outs that look alike come from different tables or passages of the source.

Experiments:
[1] = Particle size and polydispersity index of nanoparticle compositions (Zetasizer Nano ZS); type: physicochemical
Outline: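 Particle size and PDI were measured on a Zetasizer Nano ZS with the nanoparticle compositions dispersed in 1×PBS.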

[2] = Encapsulation efficiency of RNA (QUANT-IT RIBOGREEN RNA assay); type: physicochemical
Outline: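 Nanoparticle samples diluted to ~5 μg/mL RNA in TE buffer (pH 7.5), incubated with or without 2% Triton X-100 solution at 37 °C for 15 min, then RiboGreen added. Fluorescence read at ~480/520 nm, blank-subtracted; free RNA % = intact over Triton-disrupted signal.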

[3] = pKa of nanoparticle compositions; type: physicochemical
[4] = test system: luciferase (Luc) mRNA expression; experiment: Expression of Luc induced by sample formulations, whole-body bioluminescence after intravenous administration; type: in vivo; settings: for Total Flux 3 hours / Total Flux 6 hours / Total Flux 24 hours: Table 2; for Luc expression in mice compared with MC3 (in words): Table 7a
Outline: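 Mice (n=6) dosed intravenously with Luc mRNA nanoparticle formulations at 0.5 mg/kg. Whole-body bioluminescence measured at 3, 6 and 24 h. Standard MC3 formulation and PBS control run alongside.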

[5] = test system: modified luciferase expression; experiment: Expression of Luc in different organs (liver, lung, spleen, femur) 6 hours after intravenous administration; type: in vivo; settings: Table 3, mice, i.v., 0.5 mpk
Description: The efficacy of the nanoparticle compositions presented in Tables 1, 1a, 17-1, 19-1, 20-1 and 21-1 was further evaluated by measuring the expression of modified luciferase in the liver, lung, spleen, and femur upon administration of a given composition. Formulations were administered intravenously to mice (n=3) at a dosage of 0.5 mpk and bioluminescence measured after 6 hours. The standard MC3 formulation and a PBS control were also tested.

[6] = test system: IL-6; experiment: Cytokine production induced by sample formulations: IL-6; type: in vivo; settings: Table 4; mice, i.v., 0.5 mpk, 6 hours; in pg/mL (unit assumed)
Outline: (§1)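 Mice received nanoparticle formulations intravenously at 0.5 mpk, with standard MC3 formulation and PBS as controls. Cytokine concentrations were measured 6 hours after dosing.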

[7] = test system: IP-10; experiment: Cytokine production induced by sample formulations: IP-10; type: in vivo; settings: Table 4; mice, i.v., 0.5 mpk, 6 hours; in pg/mL (unit assumed)
Outline: as §1

[8] = test system: hEPO mRNA expression; experiment: Expression of hEPO in rats after intravenous administration; type: in vivo; settings: for hEPO expression in rats (in words): FIG. 8, 2 mpk (Graph A)
Description: PBS (phosphate buffered saline) is used as control.
Formulations were prepared according to Table 5 and included mRNA encoding hEPO.
[…] After the 48 hour time point, livers and spleens were harvested and frozen.

[9] = test system: LDLr−/− mice; experiment: Expression in LDLr−/− mice (LDLr dependence); type: in vivo; settings: FIG. 9, FIG. 10
[10] = test system: LDL-c; experiment: LDL levels in LDLr−/− mice after mRNA encoding the LDL receptor; type: in vivo, LDLR knockout mice
[11] = Tolerability / toxicity in rats (hEPO study); type: in vivo; settings: FIG. 8, i.v., 2 mg/kg dose
[12] = Concentration of RNA in nanoparticle composition (ultraviolet-visible spectroscopy); type: physicochemical; settings: Table 5, hEPO mRNA
Description: Ultraviolet-visible spectroscopy can be used to determine the concentration of a therapeutic and/or prophylactic agent (e.g., RNA) in nanoparticle compositions. 100 μL of the diluted formulation in 1×PBS is added to 900 μL of a 4:1 (v/v) mixture of methanol and chloroform. After mixing, the absorbance spectrum of the solution is recorded, for example, between 230 nm and 330 nm on a DU 800 spectrophotometer (Beckman Coulter, Beckman Coulter, Inc., Brea, Calif.). The concentration of therapeutic and/or prophylactic agent in the nanoparticle composition can be calculated based on the extinction coefficient of the therapeutic and/or prophylactic agent used in the composition and on the difference between the absorbance at a wavelength of, for example, 260 nm and the baseline value at a wavelength of, for example, 330 nm.

[13] = Lipid levels in liver and spleen 48 hours after administration; type: in vivo, rats; settings: 48 hours after administration; for concentration at 48 h: Sprague-Dawley, rat, intravenous
Description: Formulations were administered intravenously to rats (n=3 or 6) at a dosage of 0.2 mg/kg or 0.5 mg/kg (mpk) and hEPO levels measured at 3, 6, and 24 hour time points. After the 48 hour time point, livers and spleens were harvested and frozen.
The amount of lipid in the liver and spleen 48 hours after administration of a nanoparticle composition was also measured. […] In contrast, approximately 60% of doses including MC3 or Compound 22 remained in the liver after 48 hours. Less than 3% of the dose remained in the spleen for each composition tested.

[14] = Table 1, rows without footnote mark
[15] = Table 1, rows without footnote mark (lipid:DOPE:cholesterol:PEG-DMG 40:20:38.5:1.5, Luc mRNA; MC3 standard formulation)
[16] = Table 5, hEPO mRNA, 40:20:38.5:1.5 Lipid:DOPE:Chol:PEG-DMG
[17] = 40:20:38.5:1.5 Lipid:DOPE:Chol:PEG-DMG
[18] = Table 5, hEPO mRNA, 50:10:38.5:1.5 Lipid:DSPC:Chol:PEG-DMG

| Compound | PDI [1, 14] | Size (nm) [1, 15] | EE (%) [2, 14] | pKa [3, 14] | Total Flux 3 hours ([4]; mice, i.v., 0.5 mg/kg, 3 hours) | Total Flux 6 hours ([4]; mice, i.v., 0.5 mg/kg) | Total Flux 24 hours ([4]; mice, i.v., 0.5 mg/kg) | Total Flux Femur [5] | Total Flux Liver [5] | Total Flux Lung [5] | Total Flux Spleen [5] | IL-6 [6] | IP-10 [7] | hEPO expression in rats (in words) ([8]; rats, i.v.) | tolerability / toxicity in rats (in words) [11] | PDI [1, 16] | Size (nm) [1, 16] | EE (%) [2, 16] | pKa [3, 16] | Conc. [12, 17] | also measured |
| --- | --- | --- | --- | --- | --- | --- | --- | --- | --- | --- | --- | --- | --- | --- | --- | --- | --- | --- | --- | --- | --- |
| CCCCCCCCCCCCN(CCCCCCCCCCCC)CCN(CCCCCCCCCCCC)CC(=O)N1CCN(C(=O)CN(CCCCCCCCCCCC)CCCCCCCCCCCC)CC1 [Compound 11, 2-(Didodecylamino)-1-(4-(N-(2-(didodecylamino)ethyl)-N-dodecylglycyl)piperazin-1-yl)ethan-1-one] | 0.099 | 87.4 nm | 99.5% | 6.54 | 1.23E+10 | 3.81E+09 | 8.20E+08 | 1.47E+06 | 1.67E+09 | 2.21E+06 | 7.21E+06 | 250 | 3305 | comparable to MC3 | improved tolerability as compared to KL22 | – | – | – | – | – | LDLr dependence of the lipid (in words) [9]: LDLr independent lipid; LDL-c levels in LDLR knockout mice (in words) ([10]; FIG. 9 Graph B, mRNA encoding the LDL receptor, 0.5 and 1 mpk): found to drop |
| CCCCCCCCCCCCN(CCCCCCCCCCCC)CCN(CCCCCCCCCCCC)CCN1CCN(CCN(CCCCCC(=O)OCCCCC)CCCCCC(=O)OCCCCC)CC1 [Compound 14, Dipentyl 6,6′-((2-(4-(2-((2-(didodecylamino)ethyl)(dodecyl)amino)ethyl)piperazin-1-yl)ethyl)azanediyl)dihexanoate] | 0.008 | 88.7 nm | 96.6% | 6.31 | 9.86E+08 | 1.56E+09 | 1.02E+08 | – | 2.62E+08 | 3.56E+06 | 1.46E+07 | 17 | 209 | – | – | 0.14 | 76.8 nm | 98.91% | 6.308 | 603.76 µg/mL | Luc expression in mice compared with MC3 (in words) [4]: significantly lower; hEPO (pg/mL) 3 hours ([8]; Table 6, rats, i.v., 0.2 mg/kg or 0.5 mg/kg, 3 hours): 280973 pg/mL; hEPO (pg/mL) 6 hours ([8]; Table 6, rats, i.v., 0.2 mg/kg or 0.5 mg/kg, 6 hours): 158520 pg/mL; hEPO (pg/mL) 24 hours ([8]; Table 6, rats, i.v., 0.2 mg/kg or 0.5 mg/kg, 24 hours): 58805 pg/mL; Lipid/MC3 hEPO S.D. (rats) ([8]; hEPO expression relative to MC3, S.D. rats, intravenous): 0.12; concentration at 48 h ([13]; liver, read-out: Lipid in liver): 3990 ng/g; concentration at 48 h ([13]; spleen, read-out: Lipid in spleen): 1620 ng/g; % remaining dose in liver ([13]; liver): 5.54%; % remaining dose in spleen ([13]; spleen): 0.15% |
| CCCCCCCCCCCCN(CCCCCCCCCCCC)CCN(CCCCCCCCCCCC)CCN1CCN(CCN(CCCCCCCCC)CCCCCCCCC)CC1 [Compound 23, N^1-(2-(4-(2-(Dinonylamino)ethyl)piperazin-1-yl)ethyl)-N^1,N^2,N^2-tridodecylethane-1,2-diamine] | 0.058 | 85.4 nm | 82.9% | 6.07 | 2.33E+10 | 3.40E+10 | 1.06E+09 | 3.17E+06 | 4.94E+09 | 1.51E+07 | 2.95E+07 | 259 | 3702 | – | toxic | 0.16 | 98.5 nm | 77.19% | 6.070 | 438.20 µg/mL | PDI [1, 18]: 0.11; Size (nm) [1, 18]: 95.2 nm; EE (%) [2, 18]: 51.46%; pKa [3, 18]: 6.164; Conc. ([12]; 50:10:38.5:1.5 Lipid:DSPC:Chol:PEG-DMG): 454.58 µg/mL; Luc expression in mice compared with MC3 (in words) [4]: several fold higher; total flux after 3 hours, rank within the named table (in words) ([4]; mice, i.v., 0.5 mg/kg, 3 hours): highest flux after 3 hours |
| CCCCCCCCCCCCN(CCCCCCCCCCCC)CCN(CCCCCCCCCCCC)CCN1CCN(CCN(CCCCCCCCCCCC)CCCCCCCCCCCC)CC1 [KL22, N1-[2-(didodecylamino)ethyl]-N1,N4,N4-tridodecyl-1,4-piperazinediethanamine, reference compound] | – | – | – | – | – | – | – | – | – | – | – | – | – | do not express hEPO in rats | toxic | – | – | – | – | – | response vs control in vivo at 0.5 mg/kg ([10]; Mus musculus, Table 7b, LDLr−/− mice, 0.5 mpk, LDLr, read-out: LDL levels lipid/untreated LDLr−/− mice 0.5 mpk, LDLr): 51% |
